US8916499B2, “Herbicidal compositions comprising 4-amino-3-chloro-5-fluoro-6-(4-chloro-2-fluoro-3-methoxyphenyl) pyridine-2-carboxylic acid or a derivative thereof and a protoporphyrinogen oxidase inhibitor” (Dow AgroSciences LLC, priority 2012, dated 2014)
Values joined by “and” are separate entries in the source; they are usually repeats but may differ in a detail not shown here. Equal values may be shown once.

Experiments:
ECHOR = experiment: In-water applied weed control, transplanted paddy rice, greenhouse (Example II); assay type: in vivo, Echinochloa oryzoides (Ard.) Fritsch
ISCRU = experiment: Postemergence foliar-applied weed control, direct seeded rice, greenhouse (Example I); assay type: in vivo, Ischaemum rugosum Salisb.; details: g ae/ha Compound A Benzyl Ester+g ai/ha pyraclonil: r37 8+0, r38 16+0, r39 0+67.5, r40 0+135, r41 0+270, r42 8+67.5, r43 16+67.5, r44 8+135, r45 16+135, r46 8+270, r47 16+270
CYPRO = experiment: In-water applied weed control, transplanted paddy rice, greenhouse (Example II); assay type: in vivo, Cyperus rotundus L.; details: g ae/ha Compound A Benzyl Ester+g ai/ha pyraclonil: r19 4.38+0, r20 8.75+0, r21 0+45, r22 0+90, r23 4.38+45, r24 8.75+45, r25 4.38+90, r26 8.75+90
ECHCG [1] = experiment: as above; assay type: in vivo, Echinochloa crus-galli (L.) P. Beauv.; details: g ae/ha Compound A Acid+g ai/ha pyraclonil: r11 8.75+0, r12 17.5+0, r13 0+45, r14 8.75+45, r15 17.5+45
IPOHE = experiment: Postemergence foliar-applied weed control, direct seeded rice, greenhouse (Example I); assay type: in vivo, Ipomoea hederacea Jacq.
BRAPP = experiment: as above; assay type: in vivo, Brachiaria platyphylla (Griseb.) Nash; details: g ae/ha Compound A Acid+g ai/ha pyraclonil: r11 4.38+0, r12 0+33.75, r13 0+67.5, r14 0+135, r15 4.38+33.75, r16 4.38+67.5, r17 4.38+135
ECHCG [2] = experiment: as above; assay type: in vivo, Echinochloa crusgalli (L.) Beauv.
LEFCH [3] = experiment: In-water applied weed control, transplanted paddy rice, greenhouse (Example II); assay type: in vivo, Leptochloa chinensis (L.) Nees; details: g ae/ha Compound A Benzyl Ester+g ai/ha carfentrazone-ethyl: r11 8.75+0, r12 17.5+0, r13 35+0, r14 0+28, r15 8.75+28, r16 17.5+28, r17 35+28
DIGSA = experiment: Postemergence foliar-applied weed control, direct seeded rice, greenhouse (Example I); assay type: in vivo, Digitaria sanguinalis (L.) Scop.; details: g ae/ha Compound A Acid+g ai/ha carfentrazone-ethyl: r11 4.38+0, r12 8.75+0, r13 17.5+0, r14 0+14, r15 4.38+14, r16 8.75+14, r17 17.5+14
CYPIR = experiment: as above; assay type: in vivo, Cyperus iria L.; details: g ae/ha Compound A Benzyl Ester+g ai/ha carfentrazone-ethyl: r11 8.75+0, r12 0+3.5, r13 0+7, r14 0+14, r15 8.75+3.5, r16 8.75+7, r17 8.75+14
CYPES = experiment: as above; assay type: in vivo, Cyperus esculentus L.; details: g ae/ha Compound A Acid+g ai/ha carfentrazone-ethyl: r27 4.38+0, r28 8.75+0, r29 0+7, r30 0+14, r31 4.38+7, r32 8.75+7, r33 4.38+14, r34 8.75+14
LEFCH [4] = experiment: as above; assay type: in vivo, Leptochloa chinensis (L.) Nees

Question: `C#CCN(C)c1c(C#N)cnn1-c1nn2c(c1Cl)CCCC2` [Pyraclonil, 1-(3-chloro-4,5,6,7-tetrahydropyrazolo[1,5-a]pyridin-2-yl)-5-(methyl-2-propynylamino)-1H-pyrazole-4-carbonitrile, reference compound] was tested. Which “Visual Weed Control (%) - 20 DAA ECHOR Obs” value (ECHOR; g ae/ha Compound A Benzyl Ester+g ai/ha pyraclonil: r11 4.38+0, r12 8.75+0, r13 17.5+0, r14 0+45, r15 4.38+45, r16 8.75+45, r17 17.5+45) did it give?
Answer: Its value is 40%.

Question: And the “Visual Weed Control (%) - 21 DAA ISCRU Obs” value (ISCRU)?
Answer: The value was 0%.

Question: What about the “Visual Weed Control (%) - 20 DAA CYPRO Obs” value (CYPRO) of the same compound?
Answer: The value was 0%.

Question: And the “Visual Weed Control (%) - 20 DAA ECHCG Obs” value (ECHCG [1])?
Answer: Its value is 0%.

Question: And the “Visual Weed Control (%) - 21 DAA IPOHE Obs” value (IPOHE; g ae/ha Compound A Acid+g ai/ha pyraclonil: r53 35+0, r54 0+270, r55 35+270)?
Answer: The value was 45%.

Question: What about the “Visual Weed Control (%) - 21 DAA IPOHE Obs” value (IPOHE; g ae/ha Compound A Benzyl Ester+g ai/ha pyraclonil: r27 17.5+0, r28 35+0, r29 0+270, r30 17.5+270, r31 35+270) of the same compound?
Answer: The value was 45%.

Question: What about the “Visual Weed Control (%) - 20 DAA BRAPP Obs” value (BRAPP) of the same compound?
Answer: Its value is 0%.

Question: What about the “Visual Weed Control (%) - 20 DAA ECHCG Obs” value (ECHCG [2]; g ae/ha Compound A Acid+g ai/ha pyraclonil: r24 4.38+0, r25 8.75+0, r26 0+33.75, r27 0+67.5, r28 0+135, r29 4.38+33.75, r30 8.75+33.75, r31 4.38+67.5, r32 8.75+67.5, r33 4.38+135, r34 8.75+135) of the same compound?
Answer: Its value is 0%.

Question: What about the “Visual Weed Control (%) - 21 DAA ECHCG Obs” value (ECHCG [2]; g ae/ha Compound A Acid+g ai/ha pyraclonil: r44 17.5+0, r45 35+0, r46 0+270, r47 17.5+270, r48 35+270) of the same compound?
Answer: Its value is 0%.

Question: `CCOC(=O)C(Cl)Cc1cc(-n2nc(C)n(C(F)F)c2=O)c(F)cc1Cl` (stereo not drawn) [Carfentrazone-ethyl, ethyl α,2-dichloro-5-[4-(difluoromethyl)-4,5-dihydro-3-methyl-5-oxo-1H-1,2,4-triazol-1-yl]-4-fluorobenzenepropanoate, reference compound] was tested. Which “Visual Weed Control (%) - 21 DAA LEFCH Obs” value (LEFCH [3]) did it give?
Answer: Its value is 10%.

Question: And the “Visual Weed Control (%) - 19 DAA ECHOR Obs” value (ECHOR; g ae/ha Compound A Acid+g ai/ha carfentrazone-ethyl: r28 42.4+0, r29 0+215, r30 42.4+215)?
Answer: The value was 65%.

Question: And the “Visual Weed Control (%) - 21 DAA DIGSA Obs” value (DIGSA)?
Answer: The value was 0%.

Question: And the “Visual Weed Control (%) - 21 DAA CYPIR Obs” value (CYPIR)?
Answer: Its value is 0%.

Question: And the “Visual Weed Control (%) - 21 DAA CYPES Obs” value (CYPES)?
Answer: Its value is 0%.

Question: And the “Visual Weed Control (%) - 21 DAA ECHCG Obs” value (ECHCG [2]; g ae/ha Compound A Acid+g ai/ha carfentrazone-ethyl: r11 4.38+0, r12 8.75+0, r13 17.5+0, r14 0+14, r15 4.38+14, r16 8.75+14, r17 17.5+14)?
Answer: Its value is 10%.

Question: And the “Visual Weed Control (%) - 21 DAA ECHCG Obs” value (ECHCG [2]; g ae/ha Compound A Benzyl Ester+g ai/ha carfentrazone-ethyl: r11 8.75+0, r12 0+3.5, r13 0+7, r14 0+14, r15 8.75+3.5, r16 8.75+7, r17 8.75+14)?
Answer: The value was 0% and 10%.

Question: What about the “Visual Weed Control (%) - 19 DAA LEFCH Obs” value (LEFCH [4]; g ae/ha Compound A Acid+g ai/ha carfentrazone-ethyl: r39 19.4+0, r40 0+28, r41 19.4+28) of the same compound?
Answer: The value was 10%.

Question: What about the “Visual Weed Control (%) - 19 DAA LEFCH Obs” value (LEFCH [4]; g ae/ha Compound A n-Butyl Ester+g ai/ha carfentrazone-ethyl: r11 16+0, r12 0+28, r13 16+28) of the same compound?
Answer: The value was 10%.
